Measurements: patent publication US9855250B1, “Method to treat lung cancer” (Macau University of Science and Technology, priority 2016, dated 2018)

Experiments:
H1975 cells [1] = test: MTT cytotoxicity assay on H1975 NSCLC cells; format: cell-based; conditions: Homo sapiens, NCI-H1975, H1975, EGFR L858R/T790M, 72 h treatment
Experimental: (§1) H1975 and CCD-19 Lu was purchased from ATCC (American type culture collection). H1975 was cultivated with RPMI 1640 medium supplement with 10% fetal bovine serum (Gibco, Big Cabin, Okla., ME, USA), 100 U/mL, penicillin and 100 μg/mL and streptomycin (Gibco, Big Cabin, Okla., ME, USA). CCD-19 Lu was cultivated with MEM medium supplemented with 10% FBS, 100 U/ml penicillin and 100 μg/ml streptomycin. All cells were cultivated at 37° C. in a humidified atmosphere of 5% CO2.
(§2) H1975 cells were seeded in a 96-well microplate with 3000 cells/well confluence, and put into the incubator overnight for cells adhesion. Different concentrations of the compound F321-0719 were added with Dimethyl sulfoxide (DMSO) as vehicle control. The microplates were incubated for further 72 h. Each dosage was repeated in triplicate. 10 μL of MTT (5 mg/mL) solution was added to each well. The plate was placed back into the incubator for 4 hours. After that, 100 μL of resolved solution (10% SDS and 0.1 mM HCL) was added to each well. Before dissolving the formazan crystals, the microplate was put back into the incubator for another 4 hours. The absorbance of the plate was measured at 570 nm with reference 650 nm by a microplate reader (Tecan, Morrisville, N.C., USA). Cell viability was calculated by percentages of the absorbance of the treatment group divided by the absorbance of untreated group. […]

[2] = MTT cytotoxicity assay on normal lung fibroblast CCD-19 Lu cells; format: cell-based; conditions: human, CCD-19 Lu normal lung fibroblast cells, CCD-19 Lu normal lung cells, MTT
Experimental: as §1, §2

CCD-19 Lu cells = test: as above; format: cell-based; conditions: 72 h; even at concentration 20 times the IC50 on H1975 cells
Experimental: as §1, §2

AMPK = AMPK enzyme activity assay (CycLex AMPK Kinase Assay Kit); format: biochemical; conditions: at 2.5 μM of the compound
Excerpt: The CycLex AMPK Kinase Assay Kit (CycLex Co., Ltd., Nagano, Japan) was used to detect the activation of AMPK by the compound F321-0719. Compound C was used as AMPK inhibitor, and AMPK active enzyme was used as a positive control for phosphorylation.

[3] = tested on: phosphorylation of AMPK and ACC; test: Western blot analysis of AMPK and ACC phosphorylation in H1975 cells; format: cell-based; conditions: β-actin loading control
Experimental: After incubating H1975 cells with the compound F321-0719 for 24 h, H1975 cells were harvested and washed with cold 1×PBS. Then, cells were lysed with ice-cold RIPA lysis buffer with protease and phosphatase inhibitors added to extract the cell protein extraction. The supernatants were collected by centrifugation at 12,000 g, for 5 minutes. The quantitation of total protein extraction was measured by Bio-Rad DCTM protein assay kit (Bio-Rad, Philadelphia, Pa., USA). Then 30 μg of protein were loaded and electrophoretically separated on 10% SDS-PAGE gel and then transferred to Nitrocellulose (NC) membrane. Membranes were blocked with 5% non-fat milk and […] containing 0.1% Tween-20 (TBST) for 1 hour at room temperature. After 1 hour, membranes were incubated with primary antibodies (1:1000 dilution) against β-actin, total/phosphor-ACC, total-AMPK, and against phosphor-AMPK, at 4° C. with gently shaking overnight. Membranes were washed with TBST for 3 times (5 minutes/time), and incubated with secondary fluorescent antibody (1:10000 dilutions) for 1 hour at room temperature. Rewashing with TBST for 3 times (15 minutes/time), the stripes were visualized by LI-COR Odessy scanner (Belfast, Me., USA).

H1975 cells [4] = test: Apoptosis assay (Annexin-V FITC/PI flow cytometry) in H1975 cells; format: cell-based; conditions: 48 h treatment, vs control group
Experimental: H1975 cells (1×10^5 cells/well) were seeded in a 6-well plate for 24 h, and treated with the indicated concentrations of the compound F321-0719 for an additional 48 h at 37° C. After 48 h, the cells were washed by ice-cold 1×PBS (Phosphate-buffered saline) once and harvested by trypsination. Then cells were centrifuged, collected and re-suspended in ice-cold 1×PBS. After removing the supernatants, cell pellets were re-suspended in 100 μL 1× Annexin-binding buffer. The cells were then double-stained with Annexin-V FITC and PI (100 μg/mL) of 2 μL respectively for 15 min at room temperature in dark. After that, 300 μL 1× Annexin-binding buffer was added. Apoptotic cells were quantitatively counted by a BD Aria III Flow Cytometer (BD Biosciences, San Jose, Calif., USA).

H1975 cells [5] = test: Cell cycle analysis (PI staining, flow cytometry) in H1975 cells; format: cell-based; conditions: 5 μM and 10 μM, 48 h
Experimental: H1975 cells were plated with 1.5×10^5 cells/well at a 6-well plate and cultured overnight for attachment. Cells were treated with the compound F321-0775 at 0, 2.5, 5, 10 μM for 48 h. After treatment, all cells were harvested by trypsinization, and collected by centrifugation. After removing all suspension, cells were washed by PBS. Cells pellets were re-suspended in 70% ethanol at 4° C. overnight. Cells were centrifuged at 1000 rpm for 5 min to remove all the ethanol. Each cell pellet was re-suspended in 500 μl PI staining solution at 37° C. for 30 min in dark. Then, they were washed in PBS twice. Cells were re-suspended in 300 μl 1× binding buffer and transferred to the flow cytometer (BD FACS Aria III).

AMPK enzyme activity (fold of AMPK kinase group) (AMPK): enhanced
Compound: O=C(Nc1cccc(-c2noc(C3CCCC3)n2)c1)c1cc2ccccc2[nH]1 [F321-0719]
IC50 (H1975 cells [1]): 3.46 ± 1.71 µM
IC50 at 72 h [2]: > 100 µM
cytotoxicity on CCD-19 Lu cells (CCD-19 Lu cells): no cytotoxicity
phosphorylation of AMPK and ACC (western blot) [3]: activated phosphorylation of both AMPK and ACC in a dose-dependent manner
apoptosis level (H1975 cells [4]): induced significant level of apoptosis in a concentration-dependent manner
G2 phase of cell cycle distribution (H1975 cells [5]): increased
